Measurements published in patent US12466849B2, “Anti-viral and anti-tumoral compounds” (YEDA RESEARCH AND DEVELOPMENT CO. LTD, priority 2020, dated 2025).

Legend:
[1] = tested on: Powassan virus (POWV); assay: microbe, parasite or virus in culture; settings: BHK-21
[2] = in vitro; settings: Syrian hamster
[3] = tested on: influenza A(H5N1); assay: microbe, parasite or virus in culture; settings: H5N1, MDCK
[4] = tested on: dengue virus-2 (DV-2); assay: microbe, parasite or virus in culture; settings: Huh-7
[5] = tested on: Yellow fever virus (YFV); assay: microbe, parasite or virus in culture; settings: Huh-7
[6] = tested on: Zika virus
[7] = tested on: RSV
[8] = tested on: influenza A(H5N1)
[9] = tested on: Japanese encephalitis virus (JEV); assay: microbe, parasite or virus in culture; settings: Vero 76
[10] = tested on: Powassan virus (POWV); settings: POWV; SI = CC50/EC50
[11] = tested on: Influenza B; assay: microbe, parasite or virus in culture; settings: MDCK
[12] = tested on: Zika virus; assay: microbe, parasite or virus in culture; settings: Vero 76
[13] = tested on: influenza A(H1N1)
[14] = tested on: SARS-CoV; assay: microbe, parasite or virus in culture; settings: Severe acute respiratory syndrome coronavirus, Vero 76
[15] = tested on: SARS-CoV
[16] = in vitro; settings: African green monkey
[17] = tested on: SARS-CoV-2; settings: SARS-CoV-2; SI = CC50/EC50
[18] = tested on: West Nile virus (WNV); assay: microbe, parasite or virus in culture; settings: Vero 76
[19] = tested on: RSV; assay: microbe, parasite or virus in culture; settings: human respiratory syncytial virus, MA104
[20] = in vitro; settings: human
[21] = tested on: Influenza B
[22] = tested on: SARS-CoV-2; assay: microbe, parasite or virus in culture; settings: Severe acute respiratory syndrome coronavirus 2, Vero 76
[23] = tested on: Venezuelan equine encephalitis virus (VEEV)
[24] = tested on: West Nile virus (WNV)
[25] = tested on: poliovirus-1 (POV-1); assay: organism not typed; settings: Vero 76
[26] = tested on: Rift Valley fever virus (RVFV); assay: microbe, parasite or virus in culture; settings: Vero 76
[27] = tested on: Rift Valley fever virus (RVFV)
[28] = tested on: Venezuelan equine encephalitis virus (VEEV); assay: microbe, parasite or virus in culture; settings: Vero 76
[29] = tested on: enterovirus-68 (EV-68)
[30] = tested on: dengue virus-2 (DV-2); settings: DV-2; SI = CC50/EC50
[31] = tested on: influenza A(H1N1); assay: microbe, parasite or virus in culture; settings: H1N1, MDCK
[32] = tested on: TCRV; assay: microbe, parasite or virus in culture; settings: Mammarenavirus tacaribeense, Vero C1008
[33] = tested on: TCRV
[34] = tested on: poliovirus-1 (POV-1)
[35] = tested on: adenovirus-5 (Ad5)
[36] = tested on: Japanese encephalitis virus (JEV)
[37] = tested on: enterovirus-68 (EV-68); assay: organism not typed; settings: RD
[38] = tested on: Yellow fever virus (YFV)
[39] = tested on: adenovirus-5 (Ad5); assay: organism not typed; settings: A549
[40] = tested on: JC virus (JCV)
[41] = tested on: MOLT-3 cells
[42] = tested on: JC virus (JCV); assay: Secondary JCV assay (qPCR), COS7 cells; settings: secondary JCV assay, COS7 cells; for EC50 / EC90: 7 days, qPCR, test drug concentration 0.001-100 μM; for Activity: class by SI50
[43] = tested on: Human cytomegalovirus (HCMV), strain AD169; settings: for EC50 / EC90: drug concentration 0.048-150 μM
[44] = tested on: MRC-5 cells
[45] = tested on: HFF cells; assay: Cell proliferation assay, human foreskin fibroblast (HFF) cells; assay type: cell-based; settings: 72 h, cell number
[46] = tested on: HCMV AD169; assay: HCMV plaque reduction assay, MRC-5 cells, strain AD169; assay type: cell-based, Human cytomegalovirus; settings: hCMV AD169, MRC5 cells, plaque assay, 6-days duration
[47] = tested on: BK virus (BKV), Gardner strain
[48] = target: T1, Inosine-5′-Monophosphate Dehydrogenase 2 (IMPDH2) (Homo sapiens, UniProt P12268); assay: IMPDH inhibitor screening assay (BioVision kit); assay type: biochemical; settings: IMPDH activity, colorimetric OD 450 nm
T1 construct: purchased BioVision (California, USA)

[49] = target: T2, SARS-Cov2 RdRp (nsp12-nsp7-nsp8) (Severe acute respiratory syndrome coronavirus 2, UniProt P0DTD1); assay type: biochemical; settings: primer extension; analog at 100 uM, printed 100 mM
[50] = target: mitochondrial DNA polymerase (POLG1) (Homo sapiens, UniProt P54098); assay: Inhibition of mitochondrial DNA polymerase (POLG1)
[51] = target: T2, SARS-Cov2 RdRp (nsp12-nsp7-nsp8); assay type: biochemical; settings: after addition of GTP and CTP (third and fourth nucleotides)
[52] = Vero 76 cells without virus, test compounds

Chain of mitochondrial DNA polymerase (POLG1) (P54098 whole entry): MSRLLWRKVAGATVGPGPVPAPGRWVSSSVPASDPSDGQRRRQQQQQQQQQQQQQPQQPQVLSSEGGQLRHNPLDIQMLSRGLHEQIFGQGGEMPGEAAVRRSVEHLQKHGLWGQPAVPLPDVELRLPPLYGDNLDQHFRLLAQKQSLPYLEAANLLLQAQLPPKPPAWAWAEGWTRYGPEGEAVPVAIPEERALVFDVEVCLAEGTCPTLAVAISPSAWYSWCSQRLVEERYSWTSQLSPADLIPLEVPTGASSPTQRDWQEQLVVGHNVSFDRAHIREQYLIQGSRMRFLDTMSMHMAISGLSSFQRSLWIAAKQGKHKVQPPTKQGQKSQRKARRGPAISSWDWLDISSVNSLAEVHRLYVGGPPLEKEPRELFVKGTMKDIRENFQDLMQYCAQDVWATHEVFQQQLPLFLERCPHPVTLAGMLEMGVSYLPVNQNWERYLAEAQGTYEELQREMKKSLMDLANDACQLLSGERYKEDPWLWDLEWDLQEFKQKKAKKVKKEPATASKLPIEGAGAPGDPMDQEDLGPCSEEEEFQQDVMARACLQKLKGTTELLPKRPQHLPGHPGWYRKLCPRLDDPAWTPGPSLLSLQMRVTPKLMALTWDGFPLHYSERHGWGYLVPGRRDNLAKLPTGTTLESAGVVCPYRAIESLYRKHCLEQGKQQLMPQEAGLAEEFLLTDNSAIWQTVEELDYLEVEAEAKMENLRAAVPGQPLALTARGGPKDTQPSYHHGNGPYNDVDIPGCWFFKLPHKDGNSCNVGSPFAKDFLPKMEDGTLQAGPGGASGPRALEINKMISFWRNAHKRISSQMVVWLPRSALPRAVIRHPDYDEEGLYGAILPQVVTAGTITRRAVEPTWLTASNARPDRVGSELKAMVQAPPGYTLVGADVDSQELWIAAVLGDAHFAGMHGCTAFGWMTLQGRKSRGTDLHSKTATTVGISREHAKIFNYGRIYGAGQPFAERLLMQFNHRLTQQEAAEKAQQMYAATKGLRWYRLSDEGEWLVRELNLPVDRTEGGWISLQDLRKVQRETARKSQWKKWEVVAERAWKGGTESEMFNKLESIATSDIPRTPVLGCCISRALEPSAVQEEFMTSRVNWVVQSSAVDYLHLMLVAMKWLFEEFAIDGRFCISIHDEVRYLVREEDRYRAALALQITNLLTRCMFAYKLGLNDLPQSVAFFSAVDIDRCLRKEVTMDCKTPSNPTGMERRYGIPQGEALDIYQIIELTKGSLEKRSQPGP

Nc1ccn([C@@H]2OC(CO)=C[C@H]2O)c(=O)n1 [AB21650, 3′-deoxy-3′,4′-didehydro cytidine]
EC50 [1]: > 2000 µM | CC50 [2]: > 2000 µM | EC50 [3]: > 2000 µM | EC50 [4]: > 2000 µM | EC50 [5]: > 2000 µM | CC50 ([6]; African green monkey): > 2000 µM | SI ([6]; Zika, SI = CC50/EC50): 0 | CC50 ([7]; African green monkey): > 2000 µM | SI ([7]; RSV, SI = CC50/EC50): 0 | CC50 ([8]; MDCK cells without virus, test compounds): > 2000 µM | SI ([8]; influenza A(H5N1), SI = CC50/EC50): 0 | EC50 [9]: > 2000 µM | SI [10]: 0 | EC50 [11]: > 2000 µM | EC50 [12]: > 2000 µM | SI ([13]; H1N1): 0 | CC50 ([13]; dog): > 2000 µM | EC50 [14]: > 2000 µM | SI ([15]; SARS-CoV, SI = CC50/EC50): 0 | CC50 [15, 52]: > 2000 µM | CC50 [16]: > 2000 µM | SI [17]: 0 | EC50 [18]: > 2000 µM | EC50 [19]: > 2000 µM | CC50 [20]: > 2000 µM | SI [21]: 0 | CC50 ([21]; dog): > 2000 µM | EC50 [22]: > 2000 µM | SI ([23]; VEEV, SI = CC50/EC50): 0 | CC50 [23, 52]: > 2000 µM | CC50 ([24]; African green monkey): > 2000 µM | SI ([24]; WNV, SI = CC50/EC50): 0 | EC50 [25]: > 2000 µM | EC50 [26]: > 2000 µM | SI ([27]; RVFV, SI = CC50/EC50): 0 | CC50 [27, 52]: > 2000 µM | EC50 [28]: > 2000 µM | SI ([29]; EV-68, SI = CC50/EC50): 2 | CC50 ([29]; human): 1800 µM | SI [30]: 0 | EC50 [31]: > 2000 µM | EC50 [32]: > 2000 µM | CC50 ([33]; African green monkey): > 2000 µM | SI ([33]; TCRV, SI = CC50/EC50): 0 | SI ([34]; POV-1, SI = CC50/EC50): 0 | CC50 [34, 52]: > 2000 µM | SI ([35]; Ad5, SI = CC50/EC50): 0 | CC50 ([35]; human): > 2000 µM | CC50 ([36]; African green monkey): > 2000 µM | SI ([36]; JEV, SI = CC50/EC50): 0 | EC50 [37]: 910 µM | CC50 ([38]; Huh7 cells without virus, test compounds): > 2000 µM | SI ([38]; YFV, SI = CC50/EC50): 0 | EC50 [39]: > 2000 µM

CCC(CC)COC(=O)[C@H](C)N[P@](=O)(OCC1=CC(O)C(n2ccc(=O)[nH]c2=O)O1)Oc1ccccc1 (stereo partly drawn) [AB23031]
CC50 [40]: > 100 µM | CC50 [41]: 55.4 µM | EC50 [42]: 93.8 µM | EC90 [42]: > 100 µM | Activity [42]: NA (NA (Not Active) SI50 = 0-3.9) | Activity [43]: HI (key: NA (Not Active) SI50 = 0-3.9; LO (Slightly Active) SI50 = 4-9.9; MOD (Moderately Active) SI50 = 10-19.9; HI (Highly Active) SI50 = ≥20) | CC50 [43]: > 150 µM | activity against hCMV (in words) [43]: highly active | EC50 [43]: 0.15 µM | EC90 [43]: > 150 µM | CC50 [44]: > 100 µM | IC50 [45]: > 100 µM | EC50 [46]: > 100 µM | Activity [47]: HI (key: NA (Not Active) SI50 = 0-3.9; LO (Slightly Active) SI50 = 4-9.9; MOD (Moderately Active) SI50 = 10-19.9; HI (Highly Active) SI50 = ≥20) | CC50 [47]: > 150 µM | EC50 [47]: 5.12 µM | EC90 [47]: > 150 µM | activity against BK virus (in words) [47]: highly active

CCC(CC)COC(=O)[C@H](C)N[P@](=O)(OCC1=CC(O)C(n2cnc3c(=O)[nH]c(N)nc32)O1)Oc1ccccc1 (stereo partly drawn) [AB23032]
CC50 [40]: > 100 µM | EC50 [42]: > 100 µM | EC90 [42]: > 100 µM | Activity [42]: NA (NA (Not Active) SI50 = 0-3.9) | Activity [43]: NA (key: NA (Not Active) SI50 = 0-3.9; MOD (Moderately Active) SI50 = 4-9.9; HI (Highly Active) SI50 = ≥10) | CC50 [43]: > 150 µM | EC50 [43]: > 150 µM | EC90 [43]: > 150 µM | CC50 [44]: > 100 µM | EC50 [46]: > 100 µM | Activity [47]: NA (key: NA (Not Active) SI50 = 0-3.9; MOD (Moderately Active) SI50 = 4-9.9; HI (Highly Active) SI50 = ≥10) | CC50 [47]: > 150 µM | EC50 [47]: 77.2 µM | EC90 [47]: 149 µM

NC(=O)c1ncn([C@@H]2O[C@H](COP(=O)(O)O)[C@@H](O)[C@H]2O)n1 [RMP, Ribavirin 5′-monophosphate]
IC50 [48]: 2.6 ± 1.8 µM

O=c1ccn(C2OC(COP(=O)(O)OP(=O)(O)OP(=O)(O)O)=CC2O)c(=O)[nH]1 (stereo not drawn) [ddhUTP, 3′-deoxy-3,4-didehydro-UTP]
incorporation into RNA by SARS-Cov2 RdRp (in words) [49]: incorporated onto RNA as UTP analog | substrate for POLG1 (in words) [50]: poor substrates | chain termination of RNA synthesis (in words) [51]: caused chain termination of RNA synthesis
